Results published in patent publication US11052026B2, “Multi-capsule containing pigment for cosmetic material or functional component, and method for producing same” (CHEMLAND. CO., LTD., priority 2017, dated 2021).

Experiment: Residual rate of functional component during storage at 35° C. for 16 weeks (Example 1)
Assay type: physicochemical
Conditions: stored at 35° C.
Method: The residual rates of the functional components were compared while the cosmetic functional multi-capsule in Preparation Example 3 was stored at 35° C.

Ascorbic Acid Residual Rate (storage period 2 weeks) | Ascorbic Acid Residual Rate (storage period 4 weeks) | Ascorbic Acid Residual Rate (storage period 6 weeks) | Ascorbic Acid Residual Rate (storage period 8 weeks) | Ascorbic Acid Residual Rate (storage period 10 weeks) | Ascorbic Acid Residual Rate (storage period 12 weeks) | Ascorbic Acid Residual Rate (storage period 14 weeks) | Ascorbic Acid Residual Rate (storage period 16 weeks) | Functional Component Residual Rate (storage period 2 weeks) | Functional Component Residual Rate (storage period 4 weeks) | Functional Component Residual Rate (storage period 6 weeks) | Functional Component Residual Rate (storage period 8 weeks) | Functional Component Residual Rate (storage period 10 weeks) | Functional Component Residual Rate (storage period 12 weeks) | Functional Component Residual Rate (storage period 14 weeks) | Functional Component Residual Rate (storage period 16 weeks) | Compound
97.2% | 95.3% | 92.9% | 90% | 88.4% | 81.2% | 76.3% | 70.5% |  |  |  |  |  |  |  |  | O=C1O[C@H]([C@@H](O)CO)C(O)=C1O [compound 1, ascorbic acid]
 |  |  |  |  |  |  |  | 97.2% | 94.5% | 91.8% | 88.8% | 86.5% | 78.5% | 74.5% | 69.5% | anthocyanin [compound 2]
